Test results as given in patent US20250302815A1, “PROTEIN TYROSINE PHOSPHATASE TARGETING LIGANDS” (CALICO LIFE SCIENCES LLC, priority 2021, published 2025).

Tests used:
[1] = target: T1, PTPN2 (HiBIT-PTPN2 in 293T.109 cells) (Homo sapiens, UniProt P17706); assay: HiBiT Degradation 293T.109 PTPN2 (Nano-Glo HiBiT Lytic Assay); type: cell-based; settings: 24.0 hours
T1 construct: expressed in transfected cells; host or cells: 293T.109 (293T WT from ATCC)
T1 sequence (P17706 1-415): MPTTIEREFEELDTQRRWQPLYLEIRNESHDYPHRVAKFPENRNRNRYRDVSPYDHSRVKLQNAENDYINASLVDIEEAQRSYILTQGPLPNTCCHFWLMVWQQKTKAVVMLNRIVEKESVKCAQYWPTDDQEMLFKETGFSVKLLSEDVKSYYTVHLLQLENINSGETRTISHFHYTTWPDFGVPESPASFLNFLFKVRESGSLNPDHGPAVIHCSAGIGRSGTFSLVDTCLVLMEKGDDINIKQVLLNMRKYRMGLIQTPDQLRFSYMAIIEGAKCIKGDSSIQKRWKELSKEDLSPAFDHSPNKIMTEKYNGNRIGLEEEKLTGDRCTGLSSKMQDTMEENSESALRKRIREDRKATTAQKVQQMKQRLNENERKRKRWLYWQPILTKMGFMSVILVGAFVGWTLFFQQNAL
How it was run: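 293T.109 cells with ectopic N-terminal HiBiT-tagged PTPN2 (5000/well) exposed to compounds for 24 h at 37 °C, 5% CO2; 11-point half-log titration from 10 μM top, duplicates. Remaining HiBiT-PTPN2 read as luminescence with Nano-Glo HiBiT lytic reagent, normalised to untreated cells (0%) and reagent-free wells.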

[2] = target: T2, PTPN2 (B16F10.4 cells) (Mus musculus, UniProt Q06180); assay: HiBiT Degradation B16F10.4 PTPN2; type: cell-based; settings: 24.0 hours
T2 construct: HiBiT; host or cells: B16F10.4
T2 sequence (Q06180 1-406): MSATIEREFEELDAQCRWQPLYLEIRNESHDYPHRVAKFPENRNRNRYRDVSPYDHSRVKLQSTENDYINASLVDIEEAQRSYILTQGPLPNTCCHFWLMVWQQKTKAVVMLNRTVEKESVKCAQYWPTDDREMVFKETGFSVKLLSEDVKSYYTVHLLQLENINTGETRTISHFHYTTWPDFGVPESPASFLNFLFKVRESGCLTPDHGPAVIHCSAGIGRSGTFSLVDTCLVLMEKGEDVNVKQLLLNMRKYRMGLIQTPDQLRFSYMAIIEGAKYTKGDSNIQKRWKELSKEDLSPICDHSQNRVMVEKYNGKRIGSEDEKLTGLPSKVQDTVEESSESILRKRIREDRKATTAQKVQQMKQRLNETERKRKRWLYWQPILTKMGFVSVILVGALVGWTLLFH

SMILES | DC50 [1] | DC50 [2]
CC1(C)C[C@@H](Nc2cccc(-c3sc(C(=O)O)c(OCC(=O)O)c3Cl)c2)CCN1S(=O)(=O)Cc1cccc(NC(=O)N2CCC(c3ccc4c5c(cccc35)C(=O)N4C3CCC(=O)NC3=O)CC2)c1F (stereo partly drawn) [Example 128, 3-(carboxymethoxy)-4-chloro-5-(3-(((4S)-1-((3-(4-(1-(2,6-dioxopiperidin-3-yl)-2-oxo-1,2-dihydrobenzo[cd]indol-6-yl)piperidine-1-carboxamido)-2-fluorobenzyl)sulfonyl)-2,2-dimethylpiperidin-4-yl)amino)phenyl)thiophene-2-carboxylic acid] | 50 to 200 nM | < 50 nM
CC1(C)C[C@@H](Nc2cccc(-c3sc(C(=O)O)c(OCC(=O)O)c3Cl)c2)CCN1S(=O)(=O)Cc1cccc(NC(=O)N2CCC(c3ccc4c(c3)n(CC(F)(F)F)c(=O)n4C3CCC(=O)NC3=O)CC2)c1 (stereo partly drawn) [Example 155, 3-(carboxymethoxy)-4-chloro-5-[3-[[(4S)-1-[[3-[[4-[1-(2,6-dioxo-3-piperidyl)-2-oxo-3-(2,2,2-trifluoroethyl)benzimidazol-5-yl]piperidine-1-carbonyl]amino]phenyl]-methylsulfonyl]-2,2-dimethyl-4-piperidyl]amino]phenyl]thiophene-2-carboxylic acid] | 50 to 200 nM | 50 to 200 nM
Cn1c(=O)n([C@H]2CCC(=O)NC2=O)c2ccc([C@@H]3CCN(C(=O)Nc4cccc(CS(=O)(=O)N5CC[C@H](Nc6cccc(-c7sc(C(=O)O)c(OCC(=O)O)c7Cl)c6)CC5(C)C)c4)CC3(F)F)cc21 (single isomer, unassigned) [Example 169a] | < 50 nM | < 50 nM
CC1(C)C[C@@H](Nc2cccc(-c3sc(C(=O)O)c(OCC(=O)O)c3Cl)c2)CCN1S(=O)(=O)Cc1cccc(NC(=O)CN2CCC(c3ccc4c(c3)oc(=O)n4C3CCC(=O)NC3=O)CC2)c1 (stereo partly drawn) [Example 70, 3-(Carboxymethoxy)-4-chloro-5-[3-[[(4S)-1-[[3-[[2-[4-[3-(2,6-dioxo-3-piperidyl)-2-oxo-1,3-benzoxazol-6-yl]-1-piperidyl]acetyl]amino]phenyl]methylsulfonyl]-2,2-dimethyl-4-piperidyl]amino]phenyl]thiophene-2-carboxylic acid] | 50 to 200 nM | 200 to 1000 nM
Cn1c(=O)n(C2CCC(=O)NC2=O)c2ccc(C3CCN(C(=O)Nc4cccc(CS(=O)(=O)N5CCC(Oc6cccc(-c7sc(C(=O)O)c(OCC(=O)O)c7Cl)c6)CC5)c4)CC3)cc21 (centres unmarked) [Example 103, 3-(Carboxymethoxy)-4-chloro-5-[3-[[1-[[3-[[4-[1-(2,6-dioxo-3-piperidyl)-3-methyl-2-oxo-benzimidazol-S-yl]piperidine-1-carbonyl]amino]phenyl]methylsulfonyl]-4-piperidyl]oxy]phenyl]thiophene-2-carboxylic acid] | 200 to 1000 nM | 50 to 200 nM
Cn1c(=O)n(C2CCC(=O)NC2=O)c2ccc(C3CCN(C(=O)Nc4cccc(CS(=O)(=O)N5CC[C@H](Nc6cccc(-c7sc(C(=O)O)c(OCC(=O)O)c7Cl)c6)CC5(C)C)c4)CC3)c(F)c21 (stereo partly drawn) [Example 152, 3-(carboxymethoxy)-4-chloro-5-[3-[[(4S)-1-[[3-[[4-[1-(2,6-dioxo-3-piperidyl)-4-fluoro-3-methyl-2-oxo-benzimidazol-5-yl]piperidine-1-carbonyl]amino]phenyl]methylsulfonyl]-2,2-dimethyl-4-piperidyl]amino]phenyl]thiophene-2-carboxylic acid] | 50 to 200 nM | 50 to 200 nM

Second part, the compound after the results:

DC50 [1] | DC50 [2] | SMILES
200 to 1000 nM | ≥ 1000 nM | O=C(O)COc1c(C(=O)O)sc(-c2cccc(NC3CCN(S(=O)(=O)Cc4cccc(NC(=O)CCCCCN5CCC(Nc6cccc7c6CN(C6CCC(=O)NC6=O)C7=O)CC5)c4)CC3)c2)c1Cl (centres unmarked) [Example 33, 3-(carboxymethoxy)-4-chloro-5-[3-[[1-[[3-[6-[4-[[2-(2,6-dioxo-3-piperidyl)-1-oxo-isoindolin-4-yl]amino]-1-piperidyl]hexanoylamino]phenyl]methylsulfonyl]-4-piperidyl]amino]phenyl]thiophene-2-carboxylic acid]
200 to 1000 nM | ≥ 1000 nM | O=C(O)COc1c(C(=O)O)sc(-c2cccc(NC3CCN(S(=O)(=O)Cc4cccc(NC(=O)CCOCCCc5cccc6c5C(=O)N(C5CCC(=O)NC5=O)C6=O)c4)CC3)c2)c1Cl (centres unmarked) [Example 27, 3-(carboxymethoxy)-4-chloro-5-[3-[[1-[[3-[3-[3-[2-(2,6-dioxo-3-piperidyl)-1,3-dioxo-isoindolin-4-yl]propoxy]propanoylamino]phenyl]methylsulfonyl]-4-piperidyl]amino]phenyl]thiophene-2-carboxylic acid]
200 to 1000 nM | ≥ 1000 nM | O=C(O)COc1c(C(=O)O)sc(-c2cccc(NC3CCN(S(=O)(=O)Cc4cccc(NC(=O)CCOCCOCCCc5cccc6c5C(=O)N(C5CCC(=O)NC5=O)C6=O)c4)CC3)c2)c1Cl (centres unmarked) [Example 20, 3-(carboxymethoxy)-4-chloro-5-[3-[[1-[[3-[3-[2-[3-[2-(2,6-dioxo-3-piperidyl)-1,3-dioxo-isoindolin-4-yl]propoxy]ethoxy]propanoylamino]phenyl]methylsulfonyl]-4-piperidyl]amino]phenyl]thiophene-2-carboxylic acid]
200 to 1000 nM | ≥ 1000 nM | O=C(O)COc1c(C(=O)O)sc(-c2cccc(NC3CCN(S(=O)(=O)Cc4cccc(NC(=O)CCn5cc(CNc6cccc7c6CN(C6CCC(=O)NC6=O)C7=O)cn5)c4)CC3)c2)c1Cl (centres unmarked) [Example 38, 3-(carboxymethoxy)-4-chloro-5-[3-[[1-[[3-[3-[4-[[[2-(2,6-dioxo-3-piperidyl)-1-oxo-isoindolin-4-yl]amino]methyl]pyrazol-1-yl]propanoylamino]phenyl]methylsulfonyl]-4-piperidyl]amino]phenyl]thiophene-2-carboxylic acid]
50 to 200 nM | 50 to 200 nM | CC1(C)C[C@@H](Nc2cccc(-c3sc(C(=O)O)c(OCC(=O)O)c3Cl)c2)CCN1S(=O)(=O)Cc1cccc(NC(=O)N2CCC(c3ccc4c5c(cccc35)N(C3CCC(=O)NC3=O)C4=O)CC2)c1 (stereo partly drawn) [Example 205, 3-(carboxymethoxy)-4-chloro-5-[3-[[(4S)-1-[[3-[[4-[1-(2,6-dioxo-3-piperidyl)-2-oxo-benzo[cd]indol-S-yl]piperidine-1-carbonyl]amino]phenyl]methylsulfonyl]-2,2-dimethyl-4-piperidyl]amino]phenyl]thiophene-2-carboxylic acid]
< 50 nM | 200 to 1000 nM | CC1(C)C[C@@H](Nc2cccc(-c3sc(C(=O)O)c(OCC(=O)O)c3Cl)c2)CCN1S(=O)(=O)Cc1cccc(NC(=O)C2CN(C(=O)CNc3cccc4c3CN([C@H]3CCC(=O)NC3=O)C4=O)C2)c1 (single isomer, unassigned) [Example 44b]
200 to 1000 nM | 200 to 1000 nM | CC1(C)C[C@@H](Nc2cccc(-c3sc(C(=O)O)c(OCC(=O)O)c3Cl)c2)CCN1S(=O)(=O)Cc1cccc(NC(=O)CCCCCn2cc(CNc3cccc4c3C(=O)N(C3CCC(=O)NC3=O)C4=O)nn2)c1 (stereo partly drawn) [Example 12, 3-(carboxymethoxy)-4-chloro-5-(3-(((4S)-1-((3-(6-(4-(((2-(2,6-dioxopiperidin-3-yl)-1,3-dioxoisoindolin-4-yl)amino)methyl)-1H-1,2,3-triazol-1-yl)hexanamido)benzyl)sulfonyl)-2,2-dimethylpiperidin-4-yl)amino)phenyl)thiophene-2-carboxylic acid]
